In PubChem BioAssay AID1033 (Sanford-Burnham Center for Chemical Genomics, 2008) one finds Kd data, which are given here for 77 compounds.

The experiment concerns the target Chaperone protein DnaK (Escherichia coli (strain K12)) (UniProt P0A6Y8). Description: E. coli DnaK SBD ligand binding – biophysical, NMR, chaperone (AID 1033). To be noted: Purified DnaK SBD.

Values joined by “and” are separate entries in the source; they are usually repeats but may differ in a detail not shown here. Equal entries are not always repeated. Active and inactive are the calls of the source. The rule behind the calls is not given here.

Chain of Chaperone protein DnaK (Escherichia coli (strain K12)) (P0A6Y8 whole entry, looked up): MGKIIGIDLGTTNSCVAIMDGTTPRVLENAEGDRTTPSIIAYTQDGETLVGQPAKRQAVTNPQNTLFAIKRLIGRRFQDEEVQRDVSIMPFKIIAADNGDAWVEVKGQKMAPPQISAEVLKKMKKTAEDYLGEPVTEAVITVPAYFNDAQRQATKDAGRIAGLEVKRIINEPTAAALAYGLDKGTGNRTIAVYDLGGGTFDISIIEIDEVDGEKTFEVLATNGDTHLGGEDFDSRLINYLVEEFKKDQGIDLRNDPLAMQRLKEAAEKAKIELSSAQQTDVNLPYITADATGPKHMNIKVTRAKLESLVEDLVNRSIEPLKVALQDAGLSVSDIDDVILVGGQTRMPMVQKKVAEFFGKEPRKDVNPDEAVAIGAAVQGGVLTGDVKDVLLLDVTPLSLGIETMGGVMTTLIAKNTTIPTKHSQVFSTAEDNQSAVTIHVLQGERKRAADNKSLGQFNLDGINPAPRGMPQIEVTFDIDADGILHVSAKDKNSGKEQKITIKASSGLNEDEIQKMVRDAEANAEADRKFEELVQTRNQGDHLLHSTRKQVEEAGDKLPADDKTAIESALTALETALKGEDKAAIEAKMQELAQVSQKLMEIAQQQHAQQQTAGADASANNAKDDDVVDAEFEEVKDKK

As to `CC(C)(C)C(=O)Nc1nnc(SCC(N)=O)s1`, the Kd is > 4 mM (inactive).

As to `O=C1CCC(=O)N1c1nc2ccccc2s1`, the Kd is > 4 mM (inactive).

As for `O=C(Nc1ncc2ccccc2n1)c1cccs1`, the Kd is below 0.2 mM.

For the compound `CN(C)CC(O)C1CCOC(C)(C)C1` (configuration not stated), the Kd was > 4 mM (inactive).

For the compound `O=C(O)CCn1cncn1`, the Kd is > 4 mM (inactive).

As for `Cc1ccc(NC(=O)c2ccccc2)s1`, the Kd is > 4 mM (inactive).

As for `COc1cccc(N2CCN(C(=O)c3cccnc3)CC2)c1`, the Kd was > 4 mM (inactive).

With `COc1ccc(Cc2nnc3c4cnn(C)c4ncn23)cc1`, the Kd was > 4 mM (inactive).

Consider `Cc1cc2ncc(C(=O)O)c(C)n2n1`, for which the Kd was > 4 mM (inactive).

As to `COc1ccc2c(c1)O[C@@H]1COc3cc(OC)c(OC)cc3[C@@H]1C2=O`, the Kd was > 4 mM (inactive).

Consider `OCc1ccc2c(c1)OCCCO2`, for which the Kd is > 4 mM (inactive).

Take `c1ccc(-c2noc(-c3cccnc3)n2)nc1`: the Kd was > 4 mM (inactive).

As to `Cc1cc(NC(=O)CSc2nncn2C)no1`, the Kd was > 4 mM (inactive).

For `CCc1ccccc1OCc1nnc(N)s1`, the Kd is > 4 mM (inactive).

In the case of `COc1ccc(S(N)(=O)=O)cc1`, the Kd was > 4 mM (inactive).

Take `CC1CC2(NC(=O)NC2=O)C(C)CN1C` (configuration not stated): the Kd is > 4 mM (inactive).

As for `Cc1cc(-c2ccccc2)nc2cc(C(N)=O)nn12`, the Kd was > 4 mM (inactive).

`OCc1ccc(CN2CCOCC2)cc1`: the Kd is > 4 mM (inactive).

For the compound `NCc1oc(-c2ccccc2)cc1C(=O)O`, the Kd is > 4 mM (inactive).

Regarding `CNC(=O)c1cc(C)c(-c2ccccc2)s1`, the Kd was > 4 mM (inactive).

For the compound `COc1cccc2c1CCC1=CC(=O)CC[C@@]12C`, the Kd is > 4 mM (inactive).

Regarding `Cc1nn(C)c2sc(CO)cc12`, the Kd is > 4 mM (inactive).

Regarding `NCc1ccc(-c2csnn2)cc1`, the Kd is > 4 mM (inactive).

`CCOC(=O)c1c(C)nc2sccn12`: the Kd was > 4 mM (inactive).

Consider `O=C(O)c1cc2ccccc2o1`, for which the Kd was > 4 mM (inactive).

Regarding `Cc1nnc2ccc(N3CCCC3)nn12`, the Kd is > 4 mM (inactive).

Take `Cc1cc2ncc(C(=O)Nc3ccccc3)c(C)n2n1`: the Kd was > 4 mM (inactive).

With `OCc1cccc2c1OCCO2`, the Kd was > 4 mM (inactive).

Regarding `c1csc(-c2nn[nH]n2)c1`, the Kd was > 4 mM (inactive).

Regarding `O=C(O)c1ccc2snnc2c1`, the Kd was > 4 mM (inactive).

`COc1c2c(cc3cc[n+](C)cc13)OCO2`: the Kd was > 4 mM (inactive).

For the compound `CCCSc1nnc2[nH]c(=O)cc(N)n12`, the Kd was > 4 mM (inactive).

With `O=C(NCc1ccco1)c1nc2ncccn2n1`, the Kd is > 4 mM (inactive).

As to `O=C(O)c1ccc(-c2cnco2)cc1`, the Kd was > 4 mM (inactive).

As to `Cc1ccc(S(C)(=O)=O)s1`, the Kd is > 4 mM (inactive).

Consider `CC(=O)O[C@@H]1CC2C(C)(C)C=CC(=O)[C@]2(C)C2CC[C@@]3(C)[C@H](c4ccoc4)OC(=O)C4OC43[C@@]21C` (some centres not stated), for which the Kd is > 4 mM (inactive).

Turning to `COc1ccccc1/C=C\C(=O)O`, the Kd is > 4 mM (inactive).

Regarding `CCSc1nc2ccccc2n1CC(N)=O`, the Kd was > 4 mM (inactive).

Consider `CCn1ccc(C(=O)Nc2nccs2)n1`, for which the Kd was > 4 mM (inactive).

In the case of `Cc1ccn(S(=O)(=O)c2ccc(F)cc2)n1`, the Kd is > 4 mM (inactive).

Regarding `COc1c(C(=O)N2CCCC2)ccc2ccccc12`, the Kd was > 4 mM (inactive).

For `Nc1ccc(F)cc1F`, the Kd was > 4 mM (inactive).

On to `COc1ccc(-c2cc(=O)c3c(O)cc(O)c(-c4cc(-c5cc(=O)c6c(O)cc(O)cc6o5)ccc4OC)c3o2)cc1`, for which the Kd was > 4 mM (inactive).

Take `O=C(O)Cn1c(C(F)(F)F)nc2ccccc21`: the Kd was > 4 mM (inactive).

For the compound `COc1cccc(=O)c2c(C)n(C)c(C)c12`, the Kd is > 4 mM (inactive).

Take `Clc1ccc(SCCn2cncn2)cc1`: the Kd was > 4 mM (inactive).

`CC(=O)OC1CC[C@@]2(C)C(CCC3C2CC[C@]2(C)C(C4=CC(=O)OC4)C(OC(C)=O)CC32O)C1` (some centres not stated): the Kd was > 4 mM (inactive).

As to `Cc1ccc(C(=O)Nc2ccncc2)o1`, the Kd is > 4 mM (inactive).

As to `COc1cc2c(cc1OC)[C@@H]1C(=O)c3ccc4oc(C(C)C)cc4c3O[C@@H]1CO2`, the Kd is > 4 mM (inactive).

Turning to `O=C(NCc1ccccn1)c1ccc(Cl)cc1Cl`, the Kd was > 4 mM (inactive).

Take `Cc1cc(=O)[nH]c2ccccc12`: the Kd was > 4 mM (inactive).

`NC(=O)NC1C=CS(=O)(=O)C1` (configuration not stated): the Kd is > 4 mM (inactive).

On to `O=C1NC(=Nc2ccccc2Cl)SC1(CO)CO`, for which the Kd was > 4 mM (inactive).

With `COc1cc(C)c2c(c1C=O)Oc1c(c(C)c(O)c3c1C(O)OC3=O)OC2=O` (configuration not stated), the Kd is > 4 mM (inactive).

As for `O=S1(=O)NC(=NCc2ccccc2)c2ccccc21`, the Kd was > 4 mM (inactive).

With `Nc1ccnc(C(=O)O)c1`, the Kd is > 4 mM (inactive).

Regarding `CCNC(CC(=O)Nc1ccc(F)cc1)C(=O)O` (configuration not stated), the Kd was > 4 mM (inactive).

Consider `CCC(C)C(=O)O[C@H]1[C@H](O)C2C(CN3CC(C)CCC3[C@@]2(C)O)C2C[C@]34O[C@]5(O)C(OC(=O)C(C)(O)CC)CC[C@@]3(C)C5C(OC(C)=O)[C@@H](OC(C)=O)C4[C@@]21O` (some centres not stated), for which the Kd was > 4 mM (inactive).

In the case of `COc1c(-c2coc3cc4c(cc3c2=O)CC(O)C(C)(C)O4)ccc2c1C=CC(C)(C)O2` (configuration not stated), the Kd was > 4 mM (inactive).

Turning to `COc1ccccc1C(=O)NC1CCN(C)CC1`, the Kd was > 4 mM (inactive).

Regarding `CCCCC(Nc1n[nH]c(=O)[nH]c1=O)C(=O)O` (configuration not stated), the Kd is > 4 mM (inactive).

For the compound `O=C(O)c1ccc(NCc2cccnc2)cc1`, the Kd was > 4 mM (inactive).

On to `N#Cc1cnc(N2CCCCC2)nc1N`, for which the Kd is > 4 mM (inactive).

With `Cc1cccc(CO)n1`, the Kd was > 4 mM (inactive).

On to `NCc1cccc2c1OCCO2`, for which the Kd was > 4 mM (inactive).

For `COc1cccc(C(=O)N2CCOCC2)c1`, the Kd is > 4 mM (inactive).

On to `CCc1sc(C(=O)NC)cc1Br`, for which the Kd is > 4 mM (inactive).

Regarding `O=C(c1ccccc1)N1CCNCC1`, the Kd is > 4 mM (inactive).

On to `COc1ccc2c(=O)c(OC)c(-c3ccccc3)oc2c1`, for which the Kd was > 4 mM (inactive).

In the case of `CCCOn1nnnc1-c1ccccc1`, the Kd is > 4 mM (inactive).

In the case of `COC(=O)c1scc(S(C)(=O)=O)c1-n1cccc1`, the Kd was > 4 mM (inactive).

For the compound `Cc1nc2nc(Cc3ccccc3)[nH]n2c(=O)c1Cl`, the Kd is > 4 mM (inactive).

With `CN(C)N1C(=O)C2C3C=CC(O3)C2C1=O` (configuration not stated), the Kd is > 4 mM (inactive).

Take `O=c1nc(C(F)(F)F)nc2ccccn12`: the Kd is > 4 mM (inactive).

On to `O=C(c1cc2ccccc2o1)c1nc2c(n1O)CCCCC2`, for which the Kd is > 4 mM (inactive).

In the case of `CCOC(=O)c1[nH]c(C)cc1C`, the Kd was > 4 mM (inactive).

With `O=C(NCc1ccccc1F)c1cccs1`, the Kd was 0.158 mM and < 0.2 mM.
